Experimental data: patent US20240116985A1, “STAPLED PEPTIDES AND METHODS THEREOF” (priority 2020, published 2024)

How the values were obtained:
[1] = target: T1, beta-catenin/TCF4 engagement (Homo sapiens, UniProt P35222); assay: Nano-BRET target engagement assay (B-cat-Halo & TCF4-Luc in HEK293 cells); format: cell-based; conditions: absolute IC50; read-out: NanoBRET Abs IC50
T1 construct: expressed in transfected cells; host or cells: HEK293
T1 sequence (P35222 1-781): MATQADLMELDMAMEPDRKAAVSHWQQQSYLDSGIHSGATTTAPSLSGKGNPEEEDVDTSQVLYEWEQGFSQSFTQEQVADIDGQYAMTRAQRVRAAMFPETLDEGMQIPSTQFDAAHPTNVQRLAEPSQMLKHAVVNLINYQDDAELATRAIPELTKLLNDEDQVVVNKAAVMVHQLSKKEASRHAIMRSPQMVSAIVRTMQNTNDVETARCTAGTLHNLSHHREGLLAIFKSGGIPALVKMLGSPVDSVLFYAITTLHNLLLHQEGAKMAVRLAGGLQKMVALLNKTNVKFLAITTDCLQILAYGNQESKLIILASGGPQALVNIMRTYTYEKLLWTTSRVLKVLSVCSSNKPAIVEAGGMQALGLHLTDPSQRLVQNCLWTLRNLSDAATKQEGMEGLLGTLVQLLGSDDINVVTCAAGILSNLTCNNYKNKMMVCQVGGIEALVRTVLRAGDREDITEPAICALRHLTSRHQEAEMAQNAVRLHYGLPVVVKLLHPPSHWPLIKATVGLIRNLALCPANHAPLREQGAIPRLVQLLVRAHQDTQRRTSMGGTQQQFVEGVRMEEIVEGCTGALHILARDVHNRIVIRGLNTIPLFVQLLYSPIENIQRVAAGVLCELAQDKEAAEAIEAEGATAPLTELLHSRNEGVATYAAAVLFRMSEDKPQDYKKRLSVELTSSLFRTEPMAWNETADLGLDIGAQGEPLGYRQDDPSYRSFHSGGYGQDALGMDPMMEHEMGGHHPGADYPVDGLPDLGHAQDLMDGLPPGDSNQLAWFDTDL

[2] = target: T2, full-length beta-Catenin (Uniprot ID P35222) (Homo sapiens, UniProt P35222); assay: Fluorescence polarization IC50 (beta-catenin / 5FAM-TCF4 10-53 competition); format: binding; conditions: fluorescence polarization; read-out: beta-Catenin FP IC50
T2 construct: 10 nM full-length beta-Catenin (Uniprot ID P35222)
T2 sequence (P35222 1-781): T1 sequence (P35222 1-781)

| Structure (SMILES) | IC50 [1] [nM] | IC50 [2] [nM] |
| --- | --- | --- |
| CC(=O)N1CCC[C@]12CC=CCCCC1(CCCC=CCCCOC(=O)N3CC[C@@](C(=O)N[C@@H](Cc4ccccc4C(F)(F)F)C(=O)N[C@@H](Cc4csc5c(Cl)cccc45)C(=O)N[C@@H](C)C(N)=O)(C3)NC(=O)[C@H](CC(C)C)NC(=O)[C@H](Cc3ccccc3)NC(=O)[C@H](C)NC(=O)[C@H](CCC(N)=O)NC(=O)[C@H](Cc3cccc(C(=O)O)c3)NC(=O)[C@H](CC(=O)O)NC1=O)NC(=O)[C@H](CC(C)(C)C)NC(=O)[C@H](CC(=O)O)NC2=O (stereo partly drawn) [I-2487, Ac-PL3-Asp-Npg-B5-Asp-3COOHF-Gln-Ala-Phe-Leu-PyrS2-2F3MeF-7C1BztA-Ala-NH2] | 4200 | 36 |
| CC(=O)N1CCC[C@]12CC=CCCCC1(CCCC=CCCCOC(=O)N3CC[C@@](C(=O)N[C@@H](Cc4ccccc4C(F)(F)F)C(=O)N[C@@H](Cc4csc5c(F)cccc45)C(=O)N[C@@H](CCC(N)=O)C(N)=O)(C3)NC(=O)[C@H](CC(C)C)NC(=O)[C@H](Cc3ccccc3)NC(=O)[C@H](C)NC(=O)[C@H](C)NC(=O)[C@H](Cc3cccc(C(=O)O)c3)NC(=O)[C@H](CC(=O)O)NC1=O)NC(=O)[C@H](CC(C)(C)C)NC(=O)[C@H](CC(=O)O)NC2=O (stereo partly drawn) [I-2488, Ac-PL3-Asp-Npg-B5-Asp-3COOHF-Ala-Ala-Phe-Leu-PyrS2-2F3MeF-7FBztA-Gln-NH2] | 3600 | 26 |
| CC(=O)N1CCC[C@]12CC=CCCCC1(CCCC=CCCCOC(=O)N3CC[C@@](C(=O)N[C@@H](Cc4ccccc4C(F)(F)F)C(=O)N[C@@H](Cc4csc5c(F)cccc45)C(=O)N[C@@H](C)C(N)=O)(C3)NC(=O)[C@H](CC(C)C)NC(=O)[C@H](Cc3ccccc3)NC(=O)[C@H](C)NC(=O)[C@H](CCC(N)=O)NC(=O)[C@H](Cc3cccc(C(=O)O)c3)NC(=O)[C@H](CC(=O)O)NC1=O)NC(=O)[C@H](CC(C)(C)C)NC(=O)[C@H](CC(=O)O)NC2=O (stereo partly drawn) [I-2489, Ac-PL3-Asp-Npg-B5-Asp-3COOHF-Gln-Ala-Phe-Leu-PyrS2-2F3MeF-7FBztA-Ala-NH2] | 7400 | 29 |
| CC(=O)N1CCC[C@]12CC=CCCCC1(CCCC=CCCCOC(=O)N3CC[C@@](C(=O)N[C@@H](Cc4ccccc4C(F)(F)F)C(=O)N[C@@H](Cc4csc5cccc(Cl)c45)C(=O)N[C@@H](CCC(N)=O)C(N)=O)(C3)NC(=O)[C@H](CC(C)C)NC(=O)[C@H](Cc3ccccc3)NC(=O)[C@H](C)NC(=O)[C@H](C)NC(=O)[C@H](Cc3cccc(C(=O)O)c3)NC(=O)[C@H](CC(=O)O)NC1=O)NC(=O)[C@H](CC(C)(C)C)NC(=O)[C@H](CC(=O)O)NC2=O (stereo partly drawn) [I-2490, Ac-PL3-Asp-Npg-B5-Asp-3COOHF-Ala-Ala-Phe-Leu-PyrS2-2F3MeF-4C1BztA-Gln-NH2] | 6400 | 39 |
| CC(=O)N1CCC[C@]12CC=CCCCC1(CCCC=CCCCOC(=O)N3CC[C@@](C(=O)N[C@@H](Cc4ccccc4C(F)(F)F)C(=O)N[C@@H](Cc4csc5cccc(Cl)c45)C(=O)N[C@@H](C)C(N)=O)(C3)NC(=O)[C@H](CC(C)C)NC(=O)[C@H](Cc3ccccc3)NC(=O)[C@H](C)NC(=O)[C@H](CCC(N)=O)NC(=O)[C@H](Cc3cccc(C(=O)O)c3)NC(=O)[C@H](CC(=O)O)NC1=O)NC(=O)[C@H](CC(C)(C)C)NC(=O)[C@H](CC(=O)O)NC2=O (stereo partly drawn) [I-2491, Ac-PL3-Asp-Npg-B5-Asp-3COOHF-Gln-Ala-Phe-Leu-PyrS2-2F3MeF-4C1BztA-Ala-NH2] | 6100 | 49 |
| CC(=O)N1CCC[C@]12CC=CCCCC1(CCCC=CCCCOC(=O)N3CC[C@@](C(=O)N[C@@H](Cc4ccsc4)C(=O)N[C@@H](Cc4csc5ccccc45)C(=O)N[C@@H](CCC(N)=O)C(N)=O)(C3)NC(=O)[C@H](CC(N)=O)NC(=O)[C@H](Cc3ccccc3)NC(=O)[C@H](C)NC(=O)C3(CCCC3)NC(=O)[C@H]([C@@H](C)O)NC(=O)[C@H](CC(N)=O)NC1=O)NC(=O)[C@H](CC(C)(C)C)NC(=O)[C@H](CC(=O)O)NC2=O (stereo partly drawn) [I-2493, Ac-PL3-Asp-Npg-B5-Asn-Thr-CyLeu-Ala-Phe-Asn-PyrS2-3Thi-BztA-Gln-NH2] | > 20000 | 267 |

Second part, the molecule after the results:

| IC50 [1] [nM] | IC50 [2] [nM] | Structure (SMILES) |
| --- | --- | --- |
| > 20000 | 102 | CC(=O)N1CCC[C@]12CC=CCCCC1(CCCC=CCCCOC(=O)N3CC[C@@](C(=O)N[C@@H](Cc4ccsc4)C(=O)N[C@@H](Cc4csc5ccccc45)C(=O)N[C@@H](CC(=O)N(C)C)C(N)=O)(C3)NC(=O)[C@H](CC(N)=O)NC(=O)[C@H](Cc3ccccc3)NC(=O)[C@H](C)NC(=O)C(C)(C)NC(=O)[C@H]([C@@H](C)O)NC(=O)[C@H](CC(N)=O)NC1=O)NC(=O)[C@H](CC(C)(C)C)NC(=O)[C@H](CC(=O)O)NC2=O (stereo partly drawn) [I-2494, Ac-PL3-Asp-Npg-B5-Asn-Thr-Aib-Ala-Phe-Asn-PyrS2-3Thi-BztA-Me2Asn-NH2] |
| > 20000 | 95 | CNC(=O)C[C@H](NC(=O)[C@H](Cc1csc2ccccc12)NC(=O)[C@H](Cc1ccsc1)NC(=O)[C@]12CCN(C1)C(=O)OCCCC=CCCCC1(CCCC=CC[C@]3(CCCN3C(C)=O)C(=O)N[C@@H](CC(=O)O)C(=O)N[C@@H](CC(C)(C)C)C(=O)N1)C(=O)N[C@@H](CC(N)=O)C(=O)N[C@@H]([C@@H](C)O)C(=O)NC(C)(C)C(=O)N[C@@H](C)C(=O)N[C@@H](Cc1ccccc1)C(=O)N[C@@H](CC(N)=O)C(=O)N2)C(N)=O (stereo partly drawn) [I-2495, Ac-PL3-Asp-Npg-B5-Asn-Thr-Aib-Ala-Phe-Asn-PyrS2-3Thi-BztA-MeAsn-NH2] |
| > 20000 | 106 | CC(=O)N1CCC[C@]12CC=CCCCC1(CCCC=CCCCOC(=O)N3CC[C@@](C(=O)N[C@@H](Cc4ccsc4)C(=O)N[C@@H](Cc4csc5ccccc45)C(=O)N[C@@H](CC(N)=O)C(N)=O)(C3)NC(=O)[C@H](CC(=O)N(C)C)NC(=O)[C@H](Cc3ccccc3)NC(=O)[C@H](C)NC(=O)C(C)(C)NC(=O)[C@H]([C@@H](C)O)NC(=O)[C@H](CC(N)=O)NC1=O)NC(=O)[C@H](CC(C)(C)C)NC(=O)[C@H](CC(=O)O)NC2=O (stereo partly drawn) [I-2496, Ac-PL3-Asp-Npg-B5-Asn-Thr-Aib-Ala-Phe-Me2Asn-PyrS2-3Thi-BztA-Asn-NH2] |
| > 20000 | 105 | CNC(=O)C[C@@H]1NC(=O)[C@H](Cc2ccccc2)NC(=O)[C@H](C)NC(=O)C(C)(C)NC(=O)[C@H]([C@@H](C)O)NC(=O)[C@H](CC(N)=O)NC(=O)C2(CCCC=CCCCOC(=O)N3CC[C@@](C(=O)N[C@@H](Cc4ccsc4)C(=O)N[C@@H](Cc4csc5ccccc45)C(=O)N[C@@H](CC(N)=O)C(N)=O)(C3)NC1=O)CCCC=CC[C@]1(CCCN1C(C)=O)C(=O)N[C@@H](CC(=O)O)C(=O)N[C@@H](CC(C)(C)C)C(=O)N2 (stereo partly drawn) [I-2497, Ac-PL3-Asp-Npg-B5-Asn-Thr-Aib-Ala-Phe-MeAsn-PyrS2-3Thi-BztA-Asn-NH2] |
| > 20000 | 154 | CC(=O)N1CCC[C@]12CC=CCCCC1(CCCC=CCCCOC(=O)N3CC[C@@](C(=O)N[C@@H](Cc4ccccc4)C(=O)N[C@@H](Cc4csc5ccccc45)C(=O)N[C@@H](CC(=O)N4CCOCC4)C(N)=O)(C3)NC(=O)[C@H](CC(C)C)NC(=O)[C@H](Cc3ccccc3)NC(=O)[C@H](C)NC(=O)[C@H](CCC(=O)N(C)C)NC(=O)[C@H](CCC(N)=O)NC(=O)[C@H](CC(=O)O)NC1=O)NC(=O)[C@H](CC1CCCCC1)NC(=O)[C@H](CC(N)=O)NC2=O (stereo partly drawn) [I-2501, Ac-PL3-Asn-Cha-B5-Asp-Gln-Me2Gln-Ala-Phe-Leu-PyrS2-Phe-BztA-MorphAsn-NH2] |
